Assay results: US12312599B2, “Methods, compositions, and kits for producing beige adipocytes and treating metabolic disorders” (MaineHealth, priority 2018, dated 2025)

Test system: FD-MSCs
Assay: Beige adipogenic precursor markers in FD-MSCs (flow cytometry, immunostaining, qPCR)
Format: cell-based, human
Conditions: SB pretreatment 2 days
Method: All assays were performed between 7 and 15 passages. For osteocyte differentiation, mature MSCs were grown in 24 well culture plates to 100% confluency in MesenCult-ACF and induced to differentiate in OsteoLife Complete Osteogenesis Medium (Lifeline Cell Technology) for 21 days prior to staining with Lifeline Alizarin Red Stain to visualize calcium deposition. For chondrocyte differentiation. For beige adipogenic precursor generation, cells were grown in 24 well culture plates to 90% confluence and treated with 5 uM SB413542 (Sigma) and 10 nM human IL-4 (Peprotech) for 2 days. For beige adipogenic induction, adipogenic precursors are differentiated for 3 days with adipogenic medium consisting of T3 (2 nM), insulin (170 nM), rosiglitazone (1 μM), SB413542 (5 uM), IBMX (0.5 mM), dexamethasone (5 μM) and indomethacin (125 μM) in EGM-2 medium (Lonza) supplemented with the BulletKit minus FGF2 (modified from^33). Thereafter, cells are maintained in adipogenic medium without IBMX, dexamethasone and indomethacin. The medium was changed every 3 days and adipocytes were fully differentiated by 9-12 days as determined by lipid accumulation and peak expression of UCP1.
Cell Isolation, Expansion and Differentiation of Interscapular Brown Adipose Tissue Preadipocytes • 1. Prior to adipose cell isolation, warm DMEM, FBS and cell wash buffer to room temperature. • 2. In a laminar flow cabinet for cell culture, place 5 g of adipose tissue on a 100×20 mm dish. Suspend tissue in 1 mL of Adipose Tissue Dissociation Kit enzyme digest cocktail and finely mince with a razorblade. • 3. Transfer cell suspension slurry to a 5 mL polystyrene round bottom tube and add an additional 1.5 mL of enzyme digest cocktail to tube. • 4. Incubate tube at 37° C. on a rotating nutator for 30 minutes. During incubation period, briefly vortex sample for 5 s in 10-minute intervals. • 5. Transfer cells to a 15 mL tube and add 5 mL of DMEM. Filter cell suspension through a 100 μm strainer into a new 15 mL tube and centrifuge at 300 g for 5 minutes to form a pellet. • 6. Remove supernatant and leave behind […] of DMEM. […]

NC(=O)c1ccc(-c2nc(-c3ccc4c(c3)OCO4)c(-c3ccccn3)[nH]2)cc1 [SB, SB431542]
cell surface expression of PDGFRα and MSCA1: increased | nuclear accumulation of EBF2: significantly increased
